Measurements: US20040171543A1, “Matrix metalloproteinase inhibitors and methods for identification of lead compounds” (priority 2002, published 2004)

Columns and labels:
[1] = biological target: T1, MMP-2 (Homo sapiens, UniProt P08253); settings: Curtin et al.; cited from earlier work
T1 sequence (P08253 110-660): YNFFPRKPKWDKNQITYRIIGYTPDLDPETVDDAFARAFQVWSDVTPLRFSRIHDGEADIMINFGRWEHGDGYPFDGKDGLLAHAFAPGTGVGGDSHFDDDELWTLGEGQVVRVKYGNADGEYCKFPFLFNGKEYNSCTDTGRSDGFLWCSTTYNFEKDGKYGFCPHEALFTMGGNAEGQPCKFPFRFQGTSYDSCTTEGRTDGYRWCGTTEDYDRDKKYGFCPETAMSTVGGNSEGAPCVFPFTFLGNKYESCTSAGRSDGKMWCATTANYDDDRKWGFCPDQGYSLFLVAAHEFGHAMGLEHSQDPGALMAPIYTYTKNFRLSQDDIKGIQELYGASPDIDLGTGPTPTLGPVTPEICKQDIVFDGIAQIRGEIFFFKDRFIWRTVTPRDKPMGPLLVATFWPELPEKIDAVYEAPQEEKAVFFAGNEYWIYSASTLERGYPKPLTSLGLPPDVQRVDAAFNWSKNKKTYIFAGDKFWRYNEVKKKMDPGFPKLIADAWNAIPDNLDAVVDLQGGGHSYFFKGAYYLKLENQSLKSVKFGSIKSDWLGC

[2] = tested on: tumor growth; settings: murine syngenetic tumor growth model; cited from earlier work
[3] = tested on: MMP-2 and MMP-9; settings: Wada et al.; cited from earlier work
[4] = biological target: T2, MMP-1 (Homo sapiens, UniProt P03956); settings: Chen et al.; cited from earlier work
T2 sequence (P03956 100-469): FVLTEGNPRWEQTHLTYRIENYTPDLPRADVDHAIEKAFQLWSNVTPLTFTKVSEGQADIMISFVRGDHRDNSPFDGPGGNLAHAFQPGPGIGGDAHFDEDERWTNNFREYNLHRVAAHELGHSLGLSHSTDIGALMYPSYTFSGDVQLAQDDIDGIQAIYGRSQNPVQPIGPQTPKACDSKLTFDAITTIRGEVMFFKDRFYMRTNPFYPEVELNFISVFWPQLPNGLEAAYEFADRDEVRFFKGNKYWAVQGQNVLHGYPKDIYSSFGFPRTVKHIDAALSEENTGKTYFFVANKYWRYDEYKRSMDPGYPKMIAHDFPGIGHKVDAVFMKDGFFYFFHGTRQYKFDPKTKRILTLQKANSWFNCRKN

[5] = biological target: MMP-13 (Homo sapiens, UniProt P45452); settings: Chen et al.; cited from earlier work
[6] = biological target: MMP-9 (Homo sapiens, UniProt P14780); settings: Chen et al.; cited from earlier work
[7] = biological target: TACE (Homo sapiens, UniProt P78536); settings: Chen et al.; cited from earlier work
[8] = biological target: T3, MMP-9 full length (9FL) (Homo sapiens, UniProt P14780); assay: Fluorigenic peptide-1 substrate based assay, MMP-9, with/without AcNHOH; type: biochemical
T3 construct: purchased Calbiochem; host or cells: stimulated neutrophils
Description: MMP-9 may be obtained from commercial sources. For example, full-length pro-MMP-9 purified from stimulated neutrophils is available from Calbiochem.

[9] = biological target: T1, MMP-2; assay: Steady-state kinetics of the mechanism of inhibition of MMP-2; type: biochemical; settings: 6 inhibitor concentrations 0 to 600 nanomolar, FIG. 8
Description: In FIG. 8, 1 over the initial velocity Vo, which is the initial rate of product formation in a steady state kinetics assay, is plotted on the Y-axis versus 1 over concentration of substrate [S] used in the assay on the X-axis for inhibition of MMP-2 with N-[(3-phenylisoxazol-5-ylmethyl)-aminothiocarbonyl]-benzamide at 6 concentrations of from 0 nanomolar to 600 nanomolar.

[10] = biological target: T4, MMP-2 full length (2FL) (Homo sapiens, UniProt P08253); assay: Fluorigenic peptide-1 substrate based assay, MMP-2, with/without AcNHOH; type: biochemical
T4 sequence (P08253 110-660): T1 sequence (P08253 110-660)

[11] = biological target: T5, MMP-13 catalytic domain (MMP-13CD) (Homo sapiens, UniProt P45452); assay: Fluorigenic peptide-1 substrate based assay, MMP-13CD, with/without AcNHOH; type: biochemical; settings: IC50 with AcNHOH divided by IC50 without, listed as drawing 47
T5 construct: The catalytic domain of the MMP-13 enzyme, namely matrix metalloproteinase-13 catalytic domain (“MMP-13CD”)
Description: The catalytic domain of the MMP-13 enzyme, namely matrix metalloproteinase-13 catalytic domain (“MMP-13CD”), rather than the corresponding full-length enzyme, MMP-13 was used in such assay.
50 mM HEPES buffer (pH 7.0)
2% DMSO (with or without inhibitor test compound)
1. Dispensed 2 μL inhibitor test sample (in 100% DMSO) into well.
2. Added 88 μL assay mixture and mixed well, avoiding bubbles.
3. Initiated reactions with 10 μL of 5 nM MMP-13CD; mixed well, avoiding bubbles.
4. Immediately measured the kinetics of the reactions at room temperature.
Alternatively, an endpoint read can also be used to determine reaction velocity provided the initial fluorescence of the solution, as recorded before addition of enzyme, is subtracted from the final fluorescence of the reaction mixture.

Chain of TACE (P78536 215-824): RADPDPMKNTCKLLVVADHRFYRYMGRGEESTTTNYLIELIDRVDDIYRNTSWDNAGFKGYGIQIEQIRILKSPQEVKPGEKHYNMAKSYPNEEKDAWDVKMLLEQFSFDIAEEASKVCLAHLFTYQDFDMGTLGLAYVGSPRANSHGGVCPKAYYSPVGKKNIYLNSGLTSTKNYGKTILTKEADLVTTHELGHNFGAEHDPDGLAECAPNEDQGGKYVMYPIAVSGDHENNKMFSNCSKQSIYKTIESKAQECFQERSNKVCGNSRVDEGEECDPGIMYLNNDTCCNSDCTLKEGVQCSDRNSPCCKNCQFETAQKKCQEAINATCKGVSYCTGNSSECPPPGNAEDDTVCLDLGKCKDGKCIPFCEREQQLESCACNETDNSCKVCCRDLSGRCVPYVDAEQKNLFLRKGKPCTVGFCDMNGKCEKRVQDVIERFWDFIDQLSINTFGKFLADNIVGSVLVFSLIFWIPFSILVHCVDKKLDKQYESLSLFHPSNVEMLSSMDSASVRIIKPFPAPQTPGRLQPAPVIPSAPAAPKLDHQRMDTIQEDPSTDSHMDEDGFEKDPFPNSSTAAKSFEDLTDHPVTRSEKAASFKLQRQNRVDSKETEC
T3 sequence (P14780 107-707 limits assumed): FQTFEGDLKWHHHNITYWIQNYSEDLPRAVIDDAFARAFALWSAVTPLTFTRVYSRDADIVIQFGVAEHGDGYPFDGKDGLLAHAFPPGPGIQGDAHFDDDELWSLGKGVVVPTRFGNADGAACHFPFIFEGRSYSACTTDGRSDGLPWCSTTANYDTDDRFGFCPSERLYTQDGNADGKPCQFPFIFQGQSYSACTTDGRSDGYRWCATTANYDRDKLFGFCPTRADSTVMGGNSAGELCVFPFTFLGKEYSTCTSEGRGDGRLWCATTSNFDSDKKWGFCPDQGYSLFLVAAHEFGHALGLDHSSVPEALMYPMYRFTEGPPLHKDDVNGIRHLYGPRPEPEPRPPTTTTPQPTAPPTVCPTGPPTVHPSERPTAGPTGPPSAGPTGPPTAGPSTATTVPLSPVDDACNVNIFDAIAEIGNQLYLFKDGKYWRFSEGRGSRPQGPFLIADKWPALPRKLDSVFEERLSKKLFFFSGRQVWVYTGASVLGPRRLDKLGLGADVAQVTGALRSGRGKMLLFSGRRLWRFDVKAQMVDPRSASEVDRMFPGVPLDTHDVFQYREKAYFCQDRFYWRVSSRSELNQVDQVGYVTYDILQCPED
Chain of MMP-9 (P14780 94-707): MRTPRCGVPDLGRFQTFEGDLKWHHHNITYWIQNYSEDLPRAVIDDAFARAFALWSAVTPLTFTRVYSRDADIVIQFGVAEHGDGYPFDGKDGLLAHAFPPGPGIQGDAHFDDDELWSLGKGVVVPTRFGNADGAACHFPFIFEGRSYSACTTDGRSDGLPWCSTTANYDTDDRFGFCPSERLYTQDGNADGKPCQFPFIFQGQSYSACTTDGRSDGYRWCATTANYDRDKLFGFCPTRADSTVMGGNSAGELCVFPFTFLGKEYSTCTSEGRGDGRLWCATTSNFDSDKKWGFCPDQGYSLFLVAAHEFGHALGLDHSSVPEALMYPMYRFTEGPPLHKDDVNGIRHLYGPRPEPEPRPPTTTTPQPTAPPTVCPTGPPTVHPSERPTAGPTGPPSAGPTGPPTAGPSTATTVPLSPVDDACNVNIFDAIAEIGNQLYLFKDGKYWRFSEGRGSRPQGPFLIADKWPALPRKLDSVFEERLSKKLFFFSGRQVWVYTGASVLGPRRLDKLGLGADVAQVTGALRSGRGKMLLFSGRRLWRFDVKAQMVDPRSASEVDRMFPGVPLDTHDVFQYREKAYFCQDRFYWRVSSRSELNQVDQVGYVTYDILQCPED

CC1(C)NC(=O)N(C[C@@H](COc2ccc(-c3ccc(OC(F)(F)F)cc3)cc2)N(O)C=O)C1=O
Selectivity for MMP-2 versus MMP-1 [1]: highly selective

CC1(C)OCC([C@@H](CS(=O)(=O)c2ccc(Oc3ccc(OC(F)(F)F)cc3)cc2)N(O)C=O)O1 (some centres unmarked)
Antitumor activity [2]: demonstrated antitumor activity
Selectivity for inhibition of MMP-2 and MMP-9 over MMP-1 [3]: selective

O=C(NCCCCN1CCOCC1)c1cc2ccccc2o1 [CL-82198]
Activity against MMP-1 [4]: complete lack of activity
Inhibition of MMP-13 [5]: weak inhibition
Activity against MMP-9 [6]: complete lack of activity
Activity against TACE [7]: complete lack of activity

O=C(NC(=S)NCc1cc(-c2ccccc2)no1)c1ccccc1 [N-[(3-phenylisoxazol-5-ylmethyl)-aminothiocarbonyl]-benzamide]
IC50 Ratio (±) [8]: 0.39
Mechanism of inhibition of MMP-2 [9]: uncompetitive inhibitor
IC50 Ratio (±) [10]: 0.10
IC50 Ratio (±) [11]: 0.09
